Test system: male SD rats
Experiment: Carrageenan-induced thermal hyperalgesia assay
Type: in vivo, rat
Conditions: 3 hours
Procedure: Male SD rats weighing 170˜220 g were fasted but with free access to water for at leat 16 hours prior to testing. The rats were administered with a compound of this invention suspended in 20 ml 0.5% methylcellulose/0.025% Tween-20, or with vehicle only. Then the rats were given […] of 1% carrageenan in saline or […] saline only into the plantar surface of the left hindpaw by injection. Three hours later, the nociceptive responses to thermal stimuli were assessed as follows: Rats, which were placed in a transparent plastic chamber with a glass floor, were allowed to acclimate to their environment for 10 minutes prior to the testing. The withdrawal latency period in seconds was determined for the control and the compound treated group, and a percent inhibition in the withdrawal latency was calculated to estimate the analgesic effect of the compound [Pain 32, 77 (1988)]. In this study 6 animals were used for each group.

## CC1(C)OC(c2ccc(S(C)(=O)=O)cc2)=C(c2cccc(F)c2)C1=O [Example 4, 2,2-Dimethyl-4-(3-fluorophenyl)-5-{4-(methylsulfonyl)phenyl}-3(2H)-furanone]
  % Inhibition at 1.0 mg/kg body weight (rat hyperalgesia): 27%

## CC1(C)OC(c2ccc(S(N)(=O)=O)cc2)=C(c2cccc(F)c2)C1=O [Example 129, 5-{4-(aminosulfonyl)phenyl}-2,2-dimethyl-4-(3-fluorophenyl)-3(2H)-furanone]
  % Inhibition at 1.0 mg/kg body weight (rat hyperalgesia): 92%
